# Read-outs that look alike come from different tables or passages of the source.
# Experiments:
# [1] = Example 9: % Add on of 91.4% polyamide/8.6% elastane after 1 h in aqueous 10% PEG 400, 10% propylene glycol, 2% Polysorbate 80 with lidocaine, dried overnight at RT; format: physicochemical
# [2] = format: physicochemical; settings: 25° C.
# [3] = Example 11: % Add on from aqueous lidocaine without excipients, 60° C., 1 h, 91.4% polyamide/8.6% elastane; format: physicochemical
# [4] = Example 20: loading kinetics, aqueous 10% lidocaine, 10% PEG 400, 10% propylene glycol, 2% Polysorbate 80, 60° C., pre-cut shapes of 91.4% polyamide/8.6% elastane, squeezed; format: physicochemical
# [5] = Example 21: % Add on by finish composition, 60° C., 1 h, 91.4% polyamide/8.6% elastane; format: physicochemical
# [6] = Example 22: % Add on by humectant and permeation enhancer concentration, 60° C., 1 h, squeezed; format: physicochemical; settings: 3% lidocaine
# [7] = Example 23: % Add on by surfactant concentration, 60° C., 1 h; format: physicochemical; settings: 3% lidocaine
# [8] = Example 26: leveling; % lidocaine Add on from extraction in 0.01M HCl and HPLC; format: physicochemical
# [9] = 3% lidocaine, 2% Polysorbate 80
# [10] = 3% lidocaine, 10% PEG 400, 2% Polysorbate 80
# [11] = 3% lidocaine, 10% PEG 400, 10% propylene glycol
# [12] = 3% lidocaine, 10% PEG 400, 10% propylene glycol, 2% Polysorbate 80
# [13] = 3% lidocaine, 10% propylene glycol
# [14] = 3% lidocaine, 10% propylene glycol, 2% Polysorbate 80
structure (smiles),measurement,setting,value
"CCN(CC)CC(=O)Nc1c(C)cccc1C [Lidocaine, lidocaine]",% Add on,"[1]; lidocaine 0.1% (w/w), 2-8° C.",25.93%
same,% Add on,"[1]; lidocaine 0.1% (w/w), 50° C.",32.73%
same,% Add on,"[1]; lidocaine 0.1% (w/w), 80° C.",32.20%
same,% Add on,"[1]; lidocaine 0.1% (w/w), RT",23.91%
same,% Add on,"[1]; lidocaine 0.5% (w/w), 2-8° C.",31.48%
same,% Add on,"[1]; lidocaine 0.5% (w/w), 50° C.",29.79%
same,% Add on,"[1]; lidocaine 0.5% (w/w), 80° C.",23.91%
same,% Add on,"[1]; lidocaine 0.5% (w/w), RT",26.79%
same,% Add on,"[1]; lidocaine 1% (w/w), 2-8° C.",34.00%
same,% Add on,"[1]; lidocaine 1% (w/w), 50° C.",64.44%
same,% Add on,"[1]; lidocaine 1% (w/w), 80° C.",32.14%
same,% Add on,"[1]; lidocaine 1% (w/w), RT",33.96%
same,% Add on,"[1]; lidocaine 3% (w/w), 2-8° C.",40.00%
same,% Add on,"[1]; lidocaine 3% (w/w), 50° C.",56.52%
same,% Add on,"[1]; lidocaine 3% (w/w), 80° C.",48.98%
same,% Add on,"[1]; lidocaine 3% (w/w), RT",43.75%
same,% Add on,"[1]; lidocaine 5% (w/w), 2-8° C.",60.00%
same,% Add on,"[1]; lidocaine 5% (w/w), 50° C.",46.00%
same,% Add on,"[1]; lidocaine 5% (w/w), 80° C.",64.91%
same,% Add on,"[1]; lidocaine 5% (w/w), RT",47.27%
same,% Add on,"[1]; lidocaine 8% (w/w), 2-8° C.",50.00%
same,% Add on,"[1]; lidocaine 8% (w/w), 50° C.",64.15%
same,% Add on,"[1]; lidocaine 8% (w/w), 80° C.",89.13%
same,% Add on,"[1]; lidocaine 8% (w/w), RT",58.00%
same,% Add on,"[1]; lidocaine 10% (w/w), 2-8° C.",55.77%
same,% Add on,"[1]; lidocaine 10% (w/w), 50° C.",74.55%
same,% Add on,"[1]; lidocaine 10% (w/w), 80° C.",78.72%
same,% Add on,"[1]; lidocaine 10% (w/w), RT",102.04%
same,% Add on,"[1]; lidocaine 15% (w/w), 2-8° C.",69.77%
same,% Add on,"[1]; lidocaine 15% (w/w), 50° C.",95.74%
same,% Add on,"[1]; lidocaine 15% (w/w), 80° C.",117.78%
same,% Add on,"[1]; lidocaine 15% (w/w), RT",116.98%
same,% Add on,"[1]; lidocaine 20% (w/w), 2-8° C.",78.72%
same,% Add on,"[1]; lidocaine 20% (w/w), 50° C.",107.41%
same,% Add on,"[1]; lidocaine 20% (w/w), 80° C.",116.00%
same,% Add on,"[1]; lidocaine 20% (w/w), RT",134.04%
same,% Add on,"[1]; lidocaine 25% (w/w), 2-8° C.",132.08%
same,% Add on,"[1]; lidocaine 25% (w/w), 50° C.",124.00%
same,% Add on,"[1]; lidocaine 25% (w/w), 80° C.",132.56%
same,% Add on,"[1]; lidocaine 25% (w/w), RT",269.57%
same,% Add on,"[2]; lidocaine 0.1%, dried at RT",42.31%
same,% Add on,"[2]; lidocaine 0.1%, squeezed",7.23%
same,% Add on,"[2]; lidocaine 0.1%, washed in NaOH",2.74%
same,% Add on,"[2]; lidocaine 0.1%, washed in water",1.40%
same,% Add on,"[2]; lidocaine 25%, dried at RT",118.56%
same,% Add on,"[3]; lidocaine 0.1% w/w, dried at RT",1.03%
same,% Add on,"[3]; lidocaine 0.1% w/w, squeezed",1.09%
same,% Add on,"[3]; lidocaine 0.4% w/w, dried at RT",2.86%
same,% Add on,"[3]; lidocaine 0.4% w/w, squeezed",2.91%
same,% Add on,"[3]; lidocaine 1% w/w, dried at RT",8.03%
same,% Add on,"[3]; lidocaine 1% w/w, squeezed",7.57%
same,% Add on,"[3]; lidocaine 3% w/w, dried at RT",22.17%
same,% Add on,"[3]; lidocaine 3% w/w, squeezed",28.01%
same,% Add on,"[3]; lidocaine 5% w/w, dried at RT",31.61%
same,% Add on,"[3]; lidocaine 5% w/w, squeezed",39.06%
same,% Add on,"[3]; lidocaine 10% w/w, dried at RT",102.39%
same,% Add on,"[3]; lidocaine 10% w/w, squeezed",30.39%
same,% Add on,"[3]; lidocaine 15% w/w, dried at RT",62.68%
same,% Add on,"[3]; lidocaine 15% w/w, squeezed",98.46%
same,% Add on,"[3]; lidocaine 25% w/w, dried at RT",56.33%
same,% Add on,"[3]; lidocaine 25% w/w, squeezed",148.02%
same,% Add on,"[4]; loading time 1 min, Combined",29.915%
same,% Add on,"[4]; loading time 1 min, Shape A",29.820%
same,% Add on,"[4]; loading time 1 min, Shape B",27.838%
same,% Add on,"[4]; loading time 1 min, Shape C",30.455%
same,% Add on,"[4]; loading time 1 min, Shape D",31.547%
same,% Add on,"[4]; loading time 2 min, Combined",35.227%
same,% Add on,"[4]; loading time 2 min, Shape A",34.985%
same,% Add on,"[4]; loading time 2 min, Shape B",36.019%
same,% Add on,"[4]; loading time 2 min, Shape C",34.260%
same,% Add on,"[4]; loading time 2 min, Shape D",35.643%
same,% Add on,"[4]; loading time 3 min, Combined",36.500%
same,% Add on,"[4]; loading time 3 min, Shape A",37.273%
same,% Add on,"[4]; loading time 3 min, Shape B",36.782%
same,% Add on,"[4]; loading time 3 min, Shape C",35.879%
same,% Add on,"[4]; loading time 3 min, Shape D",36.064%
same,% Add on,"[4]; loading time 6 min, Combined",41.938%
same,% Add on,"[4]; loading time 6 min, Shape A",42.242%
same,% Add on,"[4]; loading time 6 min, Shape B",44.328%
same,% Add on,"[4]; loading time 6 min, Shape C",40.764%
same,% Add on,"[4]; loading time 6 min, Shape D",40.418%
same,% Add on,"[4]; loading time 10 min, Combined",41.190%
same,% Add on,"[4]; loading time 10 min, Shape A",39.998%
same,% Add on,"[4]; loading time 10 min, Shape B",44.262%
same,% Add on,"[4]; loading time 10 min, Shape C",40.939%
same,% Add on,"[4]; loading time 10 min, Shape D",39.560%
same,% Add on,"[4]; loading time 60 min, Combined",44.374%
same,% Add on,"[4]; loading time 60 min, Shape B",41.509%
same,% Add on,"[4]; loading time 60 min, Shape C",48.701%
same,% Add on,"[4]; loading time 60 min, Shape D",41.556%
same,% Add on,"[4]; loading time 120 min, Combined",42.458%
same,% Add on,"[4]; loading time 120 min, Shape A",42.233%
same,% Add on,"[4]; loading time 120 min, Shape B",43.286%
same,% Add on,"[4]; loading time 120 min, Shape C",43.679%
same,% Add on,"[4]; loading time 120 min, Shape D",40.635%
same,% Add on,"[4]; loading time 180 min, Combined",41.691%
same,% Add on,"[4]; loading time 180 min, Shape A",42.281%
same,% Add on,"[4]; loading time 180 min, Shape B",40.802%
same,% Add on,"[4]; loading time 180 min, Shape C",42.474%
same,% Add on,"[4]; loading time 180 min, Shape D",41.206%
same,Mean % Add on (dried at RT),[5]; 3% lidocaine only,37.25%
same,Mean % Add on (squeezed),[5]; 3% lidocaine only,20.27%
same,Mean % Add on (dried at RT),[5]; [9],19.10%
same,Mean % Add on (squeezed),[5]; [9],14.97%
same,Mean % Add on (dried at RT),"[5]; 3% lidocaine, 10% PEG 400",54.02%
same,Mean % Add on (squeezed),"[5]; 3% lidocaine, 10% PEG 400",32.03%
same,Mean % Add on (dried at RT),[5]; [10],42.88%
same,Mean % Add on (squeezed),[5]; [10],24.91%
same,Mean % Add on (dried at RT),[5]; [11],56.37%
same,Mean % Add on (squeezed),[5]; [11],30.01%
same,Mean % Add on (dried at RT),[5]; [12],40.92%
same,Mean % Add on (squeezed),[5]; [12],25.73%
same,Mean % Add on (dried at RT),[5]; [13],34.89%
same,Mean % Add on (squeezed),[5]; [13],21.14%
same,Mean % Add on (dried at RT),[5]; [14],19.34%
same,Mean % Add on (squeezed),[5]; [14],14.48%
same,Mean % Add on,"[6]; 2% PEG 400, 2% Polysorbate 80",16.59%
same,Mean % Add on,"[6]; 2% propylene glycol, 2% Polysorbate 80",14.96%
same,Mean % Add on,"[6]; 8% PEG 400, 2% Polysorbate 80",26.06%
same,Mean % Add on,"[6]; 8% propylene glycol, 2% Polysorbate 80",15.93%
same,Mean % Add on,"[6]; 15% PEG 400, 2% Polysorbate 80",30.96%
same,Mean % Add on,"[6]; 15% propylene glycol, 2% Polysorbate 80",14.84%
same,Mean % Add on,"[6]; 20% PEG 400, 2% Polysorbate 80",37.95%
same,Mean % Add on,"[6]; 20% propylene glycol, 2% Polysorbate 80",16.03%
same,Mean % Add on (dried at RT),[7]; 2% Polysorbate 80,16.18%
same,Mean % Add on (dried at RT),[7]; 5% Polysorbate 80,22.89%
same,Mean % Add on (dried at RT),[7]; 8% Polysorbate 80,21.18%
same,Mean % Add on (dried at RT),[7]; 10% PEG 400,39.67%
same,Mean % Add on (dried at RT),[7]; 10% Polysorbate 80,24.11%
same,Mean % Add on (dried at RT),[7]; 10% propylene glycol,23.99%
same,Mean % Add on (dried at RT),[7]; 15% Polysorbate 80,33.29%
same,Mean % Add on (dried at RT),[7]; 20% Polysorbate 80,38.08%
same,% lidocaine Add on,[8]; exposure to 0.01M HCl 1 hr,18.86%
same,% lidocaine Add on,[8]; exposure to 0.01M HCl 2 hr,18.07%
same,% lidocaine Add on,[8]; exposure to 0.01M HCl 4 hr,18.78%
same,% lidocaine Add on,[8]; exposure to 0.01M HCl 6 hr,18.25%
same,% lidocaine Add on,[8]; exposure to 0.01M HCl 22 hr,18.04%

# Reference: patent US20230255884A1, “FINISHED FIBROUS SRUCTURES AND METHODS OF THEIR USE AND PREPARATION” (CLEXIO BIOSCIENCES LTD., priority 2019, published 2023)
